Consider 13 molecules from patent US20210070748A1, “INHIBITORS OF BRUTONS TYROSINE KINASE” (Pharmacyclics LLC, priority 2015, published 2021).

Holding throughout (type): biochemical
One experiment concerns the target T1, JAK3 (Homo sapiens, UniProt P52333).
T1 sequence (P52333 1-1124): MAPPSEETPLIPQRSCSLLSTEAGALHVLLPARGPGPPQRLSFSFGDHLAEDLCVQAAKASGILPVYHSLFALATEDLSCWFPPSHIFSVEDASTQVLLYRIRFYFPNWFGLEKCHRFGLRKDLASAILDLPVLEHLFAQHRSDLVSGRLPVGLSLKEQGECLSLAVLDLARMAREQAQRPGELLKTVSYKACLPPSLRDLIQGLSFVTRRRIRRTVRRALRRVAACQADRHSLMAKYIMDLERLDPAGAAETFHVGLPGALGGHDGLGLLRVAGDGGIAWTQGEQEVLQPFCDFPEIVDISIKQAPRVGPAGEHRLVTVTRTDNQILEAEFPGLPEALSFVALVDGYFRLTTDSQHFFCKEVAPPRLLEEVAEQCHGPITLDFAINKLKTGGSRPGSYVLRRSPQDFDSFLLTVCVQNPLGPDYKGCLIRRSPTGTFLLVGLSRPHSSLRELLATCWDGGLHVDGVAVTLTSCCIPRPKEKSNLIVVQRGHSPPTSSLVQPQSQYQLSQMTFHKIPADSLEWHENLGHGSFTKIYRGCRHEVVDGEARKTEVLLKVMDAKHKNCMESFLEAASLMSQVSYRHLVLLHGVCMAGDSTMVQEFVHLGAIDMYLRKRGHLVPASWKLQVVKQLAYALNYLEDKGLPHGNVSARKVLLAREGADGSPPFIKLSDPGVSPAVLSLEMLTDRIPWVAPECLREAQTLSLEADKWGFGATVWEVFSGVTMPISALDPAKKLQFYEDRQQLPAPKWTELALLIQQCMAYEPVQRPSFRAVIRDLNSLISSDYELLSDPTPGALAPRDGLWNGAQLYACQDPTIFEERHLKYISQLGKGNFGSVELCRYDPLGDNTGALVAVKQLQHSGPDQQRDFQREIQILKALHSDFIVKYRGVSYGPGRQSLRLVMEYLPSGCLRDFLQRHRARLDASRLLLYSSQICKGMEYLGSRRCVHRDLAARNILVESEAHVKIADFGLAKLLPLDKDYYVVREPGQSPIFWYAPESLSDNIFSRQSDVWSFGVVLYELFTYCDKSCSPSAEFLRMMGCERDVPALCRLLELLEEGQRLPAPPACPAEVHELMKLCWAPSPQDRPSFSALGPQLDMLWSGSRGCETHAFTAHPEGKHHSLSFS
In words: Inhibition of a panel of kinases, in vitro HotSpot kinase assay: JAK3. As to conditions: D-compounds panel data; 1 μM ATP; read-out: IC50 JAK3.

The target in another experiment is T2, ITK (Homo sapiens, UniProt Q08881).
T2 sequence (Q08881 1-620): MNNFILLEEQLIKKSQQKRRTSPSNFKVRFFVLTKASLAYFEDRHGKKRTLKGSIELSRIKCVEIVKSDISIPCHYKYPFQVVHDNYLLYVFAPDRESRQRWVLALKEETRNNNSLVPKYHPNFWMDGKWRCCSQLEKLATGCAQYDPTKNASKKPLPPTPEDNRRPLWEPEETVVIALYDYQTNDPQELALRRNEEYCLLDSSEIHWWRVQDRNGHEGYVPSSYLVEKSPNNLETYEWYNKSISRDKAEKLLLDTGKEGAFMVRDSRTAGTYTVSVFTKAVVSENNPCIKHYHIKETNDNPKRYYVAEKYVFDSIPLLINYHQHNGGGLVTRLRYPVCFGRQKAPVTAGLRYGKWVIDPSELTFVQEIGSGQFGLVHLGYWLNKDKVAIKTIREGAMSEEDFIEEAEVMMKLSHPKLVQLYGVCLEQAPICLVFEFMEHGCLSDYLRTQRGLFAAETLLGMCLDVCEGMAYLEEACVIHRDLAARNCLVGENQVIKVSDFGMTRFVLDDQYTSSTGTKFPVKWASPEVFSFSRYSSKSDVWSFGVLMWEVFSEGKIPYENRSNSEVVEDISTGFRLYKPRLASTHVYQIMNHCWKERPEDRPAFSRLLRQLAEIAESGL
In words: Inhibition of a panel of kinases, in vitro HotSpot kinase assay: ITK. As to conditions: D-compounds panel data; 1 μM ATP. The method, then:
(§1) The degree of inhibition of a panel of kinases is determined using the in vitro HotSpot kinase assay (purified enzymes, ^33P-ATP, an appropriate substrate and 1 μM ATP).

The next experiment concerns the target LCK (Homo sapiens, UniProt P06239). In words: Inhibition of a panel of kinases, in vitro HotSpot kinase assay: LCK. As to conditions: D-compounds panel data; 1 μM ATP; read-out: IC50 LCK.
The target of a further experiment is EGFR (Homo sapiens, UniProt P00533). As to the kind of experiment: Inhibition of a panel of kinases, in vitro HotSpot kinase assay: EGFR. As to conditions: D-compounds panel data; 1 μM ATP. The procedure:
as §1

The target in a further experiment is SRC (Homo sapiens, UniProt P12931). In words: Inhibition of a panel of kinases, in vitro HotSpot kinase assay: SRC. The conditions noted are these: D-compounds panel data; 1 μM ATP. The procedure:
as §1

Some results are limits rather than exact numbers.

Sequence of LCK (P06239 whole entry): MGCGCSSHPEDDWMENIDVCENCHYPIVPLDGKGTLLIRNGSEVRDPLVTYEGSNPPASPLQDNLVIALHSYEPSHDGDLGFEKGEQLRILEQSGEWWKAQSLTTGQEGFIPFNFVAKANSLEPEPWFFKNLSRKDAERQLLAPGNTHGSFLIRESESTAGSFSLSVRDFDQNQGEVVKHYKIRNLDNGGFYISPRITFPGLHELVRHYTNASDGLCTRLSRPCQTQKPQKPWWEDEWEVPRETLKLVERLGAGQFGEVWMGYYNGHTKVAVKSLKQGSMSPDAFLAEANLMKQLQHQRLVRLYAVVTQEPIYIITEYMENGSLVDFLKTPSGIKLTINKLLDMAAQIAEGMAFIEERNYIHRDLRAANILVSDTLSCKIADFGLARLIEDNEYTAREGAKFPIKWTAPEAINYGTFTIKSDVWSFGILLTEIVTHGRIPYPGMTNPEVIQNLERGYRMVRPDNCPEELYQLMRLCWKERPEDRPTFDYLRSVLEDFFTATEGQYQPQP
Sequence of EGFR (P00533 25-1210): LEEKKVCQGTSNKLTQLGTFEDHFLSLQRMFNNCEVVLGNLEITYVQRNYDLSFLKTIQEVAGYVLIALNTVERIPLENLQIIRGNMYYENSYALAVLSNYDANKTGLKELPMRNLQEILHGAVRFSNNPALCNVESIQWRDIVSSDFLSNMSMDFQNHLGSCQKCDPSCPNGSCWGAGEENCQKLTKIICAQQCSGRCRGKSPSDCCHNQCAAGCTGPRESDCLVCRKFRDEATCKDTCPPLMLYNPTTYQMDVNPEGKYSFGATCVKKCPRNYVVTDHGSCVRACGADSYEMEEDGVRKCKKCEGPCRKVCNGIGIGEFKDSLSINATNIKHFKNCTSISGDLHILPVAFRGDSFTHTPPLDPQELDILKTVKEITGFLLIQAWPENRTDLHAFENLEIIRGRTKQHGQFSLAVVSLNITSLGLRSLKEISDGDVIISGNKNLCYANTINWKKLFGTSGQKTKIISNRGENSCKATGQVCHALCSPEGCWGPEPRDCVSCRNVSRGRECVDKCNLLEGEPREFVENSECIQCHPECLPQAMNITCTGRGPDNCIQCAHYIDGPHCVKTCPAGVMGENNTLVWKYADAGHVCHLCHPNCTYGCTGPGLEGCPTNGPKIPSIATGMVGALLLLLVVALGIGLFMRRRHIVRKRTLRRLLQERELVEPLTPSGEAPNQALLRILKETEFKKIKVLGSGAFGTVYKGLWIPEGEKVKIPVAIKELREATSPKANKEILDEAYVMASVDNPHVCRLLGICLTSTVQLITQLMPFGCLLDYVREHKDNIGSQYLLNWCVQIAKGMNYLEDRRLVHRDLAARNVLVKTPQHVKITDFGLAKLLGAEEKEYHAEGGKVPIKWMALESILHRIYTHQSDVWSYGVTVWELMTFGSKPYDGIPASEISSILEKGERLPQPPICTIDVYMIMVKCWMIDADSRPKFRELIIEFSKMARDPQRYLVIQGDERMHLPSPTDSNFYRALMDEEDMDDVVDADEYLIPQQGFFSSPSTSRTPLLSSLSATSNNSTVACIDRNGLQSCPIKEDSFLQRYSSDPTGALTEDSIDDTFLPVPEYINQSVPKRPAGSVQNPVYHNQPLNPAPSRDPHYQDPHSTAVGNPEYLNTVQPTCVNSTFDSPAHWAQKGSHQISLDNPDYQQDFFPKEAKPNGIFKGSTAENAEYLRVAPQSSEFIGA
Sequence of SRC (P12931 whole entry): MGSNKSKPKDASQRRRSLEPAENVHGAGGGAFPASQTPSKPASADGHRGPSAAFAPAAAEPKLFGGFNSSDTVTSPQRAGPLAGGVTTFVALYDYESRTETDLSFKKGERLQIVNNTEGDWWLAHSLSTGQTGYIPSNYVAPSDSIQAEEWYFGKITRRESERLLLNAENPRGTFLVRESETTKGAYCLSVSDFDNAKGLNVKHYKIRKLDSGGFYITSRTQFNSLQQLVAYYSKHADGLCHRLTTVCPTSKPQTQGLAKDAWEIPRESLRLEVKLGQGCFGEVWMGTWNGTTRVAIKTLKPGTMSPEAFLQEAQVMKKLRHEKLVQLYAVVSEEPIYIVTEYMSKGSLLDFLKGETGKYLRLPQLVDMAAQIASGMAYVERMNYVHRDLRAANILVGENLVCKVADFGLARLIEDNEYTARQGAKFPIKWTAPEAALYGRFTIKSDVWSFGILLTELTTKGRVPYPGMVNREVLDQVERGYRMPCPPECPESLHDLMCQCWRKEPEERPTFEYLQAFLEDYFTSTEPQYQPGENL

Consider `C[C@@H]1[C@H](NC(=O)c2ccc(C(C)(C)C#N)cc2)CCCN1c1cnc(C(N)=O)c(Nc2ccc(OC3CCN(C)CC3)cc2)n1` [Example D-292, 5-[(2R,3R)-3-[4-(1-cyano-1-methylethyl)benzamido]-2-methylpiperidin-1-yl]-3-({4-[(1-methylpiperidin-4-yl)oxy]phenyl}amino)pyrazine-2-carboxamide], for which the IC50 fell in the range of 1 to 10 µM on JAK3; 0.01 to 0.1 µM against ITK; 0.01 to 0.1 µM at LCK; 0.1 to 1 µM at EGFR; 0.01 to 0.1 µM on SRC.

With `C[C@@H]1[C@H](NC(=O)c2ccc(N(C)C)cc2)CCCN1c1cnc(C(N)=O)c(Nc2cnn(C)c2)n1` [Example D-24, 5-[(2R,3R)-3-[4-(dimethylamino)benzamido]-2-methylpiperidin-1-yl]-3-[(1-methyl-1H-pyrazol-4-yl)amino]pyrazine-2-carboxamide], the IC50 at JAK3 lay within 1 to 10 µM; on ITK, 0.1 to 1 µM; on LCK it was 0.01 to 0.1 µM; at EGFR, 1 to 10 µM; against SRC it was 0.1 to 1 µM.

Consider `C[C@@H]1[C@H](NC(=O)c2ccc(C3CC3)cc2)CCCN1c1cnc(C(N)=O)c(Nc2cc(C3CCN(C)CC3)ns2)n1` [Example D-312, 5-[(2R,3R)-3-(4-cyclopropylbenzamido)-2-methylpiperidin-1-yl]-3-{[3-(1-methylpiperidin-4-yl)-1,2-thiazol-5-yl]amino}pyrazine-2-carboxamide], for which the IC50 was 0.1 to 1 µM on JAK3; 0.01 to 0.1 µM against ITK; below 0.01 µM at LCK; 0.1 to 1 µM on EGFR; at most 0.01 µM at SRC.

`C[C@@H]1[C@H](NC(=O)c2ccc(C3CC3)cc2)CCCN1c1cnc(C(N)=O)c(Nc2cnn(CC#N)c2)n1` [Example D-287, 3-{[1-(cyanomethyl)-1H-pyrazol-4-yl]amino}-5-[(2R,3R)-3-(4-cyclopropylbenzamido)-2-methylpiperidin-1-yl]pyrazine-2-carboxamide]: the IC50 on JAK3 was 1 to 10 µM; against ITK, 0.1 to 1 µM; at LCK, 0.1 to 1 µM; at EGFR, above 10 µM; against SRC, 0.1 to 1 µM.

For the molecule `C[C@@H]1[C@H](NC(=O)c2ccc(C3CC3)cc2)CCCN1c1cnc(C(N)=O)c(Nc2ccc(C3CCN(C)CC3)cc2)n1` [Example D-301, 5-[(2R,3R)-3-(4-cyclopropylbenzamido)-2-methylpiperidin-1-yl]-3-{[4-(1-methylpiperidin-4-yl)phenyl]amino}pyrazine-2-carboxamide], the IC50 at JAK3 lay within 1 to 10 µM; against ITK, 0.1 to 1 µM; at LCK, 0.1 to 1 µM; on EGFR, 0.1 to 1 µM; on SRC it was 0.1 to 1 µM.

For `C[C@@H]1[C@H](NC(=O)N(C)C)CCCN1c1nnc(C(N)=O)c(Nc2cnn(C)c2)n1` [Example D-286, 3-[(2R,3R)-3-[(dimethylcarbamoyl)amino]-2-methylpiperidin-1-yl]-5-[(1-methyl-1H-pyrazol-4-yl)amino]-1,2,4-triazine-6-carboxamide], the IC50 at JAK3 fell in the range of 1 to 10 µM; against ITK it was 0.01 to 0.1 µM; on LCK, 0.1 to 1 µM; on EGFR, 1 to 10 µM; against SRC it was 0.01 to 0.1 µM.

Regarding `C[C@@H]1[C@H](NC(=O)c2ccc(C3CC3)cc2)CCCN1c1cnc(C(N)=O)c(Nc2cn(C)nc2C(F)(F)F)n1` [Example D-278, 5-[(2R,3R)-3-(4-cyclopropylbenzamido)-2-methylpiperidin-1-yl]-3-{[1-methyl-3-(trifluoromethyl)-1H-pyrazol-4-yl]amino}pyrazine-2-carboxamide], the IC50 at JAK3, against ITK, at LCK, on EGFR and at SRC was above 10 µM in each case.

Consider `C[C@@H]1[C@H](NC(=O)c2ccc(C3CC3)cc2)CCCN1c1cnc(C(N)=O)c(Nc2cnn(CCO)c2)n1` [Example D-281, 5-[(2R,3R)-3-(4-cyclopropylbenzamido)-2-methylpiperidin-1-yl]-3-{[I-(2-hydroxyethyl)-1H-pyrazol-4-yl]amino}pyrazine-2-carboxamide], for which the IC50 on JAK3 is 1 to 10 µM; against ITK it was 0.1 to 1 µM; at LCK, 0.1 to 1 µM; on EGFR, 1 to 10 µM; on SRC it was 0.1 to 1 µM.

On to `C[C@@H]1[C@H](NC(=O)c2ccc(C3CC3)nc2)CCCN1c1cnc(C(N)=O)c(Nc2ccc(N3CCC(F)(F)CC3)cc2)n1` [Example D-305, 5-[(2R,3R)-3-(6-cyclopropylpyridine-3-amido)-2-methylpiperidin-1-yl]-3-{[4-(4,4-difluoropiperidin-1-yl)phenyl]amino}pyrazine-2-carboxamide], for which the IC50 on JAK3 is above 10 µM; against ITK it was 0.1 to 1 µM; at LCK, 0.1 to 1 µM; on EGFR, 1 to 10 µM; against SRC it was 0.01 to 0.1 µM.

As to `C[C@@H]1[C@H](NC(=O)c2ccc(C(N)=O)cc2)CCCN1c1cnc(C(N)=O)c(Nc2cnn(C)c2)n1` [Example D-268, 1-N-[(2R,3R)-1-{5-carbamoyl-6-[(1-methyl-1H-pyrazol-4-yl)amino]pyrazin-2-yl}-2-methylpiperidin-3-yl]benzene-1,4-dicarboxamide], the IC50 at JAK3 is 1 to 10 µM; on ITK it was 0.1 to 1 µM; on LCK, 0.01 to 0.1 µM; on EGFR it was 0.1 to 1 µM; at SRC, 0.01 to 0.1 µM.

As to `C[C@@H]1[C@H](NC(=O)c2ccc(C3CC3)cc2)CCCN1c1cnc(C(N)=O)c(Nc2cnn(C(F)F)c2)n1` [Example D-275, 5-[(2R,3R)-3-(4-cyclopropylbenzamido)-2-methylpiperidin-1-yl]-3-{[1-(difluoromethyl)-1H-pyrazol-4-yl]amino}pyrazine-2-carboxamide], the IC50 on JAK3 was above 10 µM; against ITK, 1 to 10 µM; at LCK, 1 to 10 µM; at EGFR it was above 10 µM; at SRC, 0.1 to 1 µM.

`C[C@@H]1[C@H](NC(=O)N(C)C)CCCN1c1cnc(C(N)=O)c(Nc2ccc(N3CCC(F)(F)CC3)cc2)n1` [Example D-306, 3-{[4-(4,4-difluoropiperidin-1-yl)phenyl]amino}-5-[(2R,3R)-3-[(dimethylcarbamoyl)amino]-2-methylpiperidin-1-yl]pyrazine-2-carboxamide]: the IC50 at JAK3 was 1 to 10 µM; on ITK it was 0.1 to 1 µM; at LCK, 0.1 to 1 µM; at EGFR, 1 to 10 µM; on SRC it was 0.1 to 1 µM.

Consider `CC(=O)N1CCN(c2ccc(Nc3nc(N4CCC[C@@H](NC(=O)c5ccc(C6CC6)cc5)[C@H]4C)cnc3C(N)=O)cc2)CC1` [Example D-295, 3-{[4-(4-acetylpiperazin-1-yl)phenyl]amino}-5-[(2R,3R)-3-(4-cyclopropylbenzamido)-2-methylpiperidin-1-yl]pyrazine-2-carboxamide], for which the half-inhibitory concentration (IC50) on JAK3 fell in the range of 0.1 to 1 µM; on ITK, 0.1 to 1 µM; on LCK, 0.01 to 0.1 µM; against EGFR it was 0.1 to 1 µM; on SRC, 0.01 to 0.1 µM.

Broadly, the IC50 is the concentration that inhibits the measured activity by half.
